Measured values from paper PMC12655426 (Pharmaceutics, 2025).
Where two headings read alike, the source gives them in different places.

Legend:
Format in all cases: cell-based
human OAT1 = molecular target: T1, human OAT1 (Homo sapiens, UniProt Q4U2R8); test: Polyphenol inhibition of OAT1-mediated OTA uptake in HEK293 cells; conditions: for OTA uptake, fraction of vehicle control: polyphenol 10 μM, 300 nM OTA, 5 min
T1 construct: host or cells: HEK293, stably transfected
T1 sequence (Q4U2R8 1-563): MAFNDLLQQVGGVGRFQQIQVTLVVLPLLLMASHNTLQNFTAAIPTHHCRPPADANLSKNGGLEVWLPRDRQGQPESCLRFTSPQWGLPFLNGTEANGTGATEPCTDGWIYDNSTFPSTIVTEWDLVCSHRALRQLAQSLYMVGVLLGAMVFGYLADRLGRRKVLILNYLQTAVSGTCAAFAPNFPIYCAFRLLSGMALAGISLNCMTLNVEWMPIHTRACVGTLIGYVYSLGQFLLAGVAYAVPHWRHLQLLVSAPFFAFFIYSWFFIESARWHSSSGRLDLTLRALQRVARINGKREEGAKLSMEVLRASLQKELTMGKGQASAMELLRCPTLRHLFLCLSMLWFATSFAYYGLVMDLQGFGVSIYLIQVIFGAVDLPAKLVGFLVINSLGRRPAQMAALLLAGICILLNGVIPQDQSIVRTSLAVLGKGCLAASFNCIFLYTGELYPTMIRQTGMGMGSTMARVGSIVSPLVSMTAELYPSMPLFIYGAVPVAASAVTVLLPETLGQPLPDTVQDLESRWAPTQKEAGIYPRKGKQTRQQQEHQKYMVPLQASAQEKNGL
Method: (§1) Because OATP1A2 is expressed at exceptionally low levels in the apical membrane of the kidney as well as in the liver and intestine, interaction studies focused on OAT1, OAT3, OAT4, and BCRP as these will have a greater impact on circulating polyphenol levels. […] Uptake assays were performed in three independent experiments, each in technical triplicate.
(§2) A p-value < 0.05 was considered statistically significant. For the estimation of IC50 or EC50 values, transport activity data were fitted with the following four-parameter logistic models: V=Bottom+Top−Bottom/1+I/IC50^h for inhibitors V=Bottom+[I]^h×(Top−Bottom)/[I]^h+EC50^h for activators where V is transport activity expressed as a percentage of vehicle control, [I] is inhibitor (or activator) concentration, Top and Bottom are the asymptotic plateaus, IC50 or EC50 is the concentration producing half-maximal inhibition (or activation), and h is the Hill slope. All data analyses were performed using GraphPad Prism version 10.2.3 (GraphPad). Parameter estimates are reported as best-fit ± standard error from three independent experiments, each run in technical triplicate.

OAT3 = molecular target: T2, OAT3 (Homo sapiens, UniProt Q8TCC7); test: Polyphenol inhibition of OAT3-mediated OTA uptake in HEK293 cells; design: host or cells: HEK293, stably transfected; conditions: for OTA uptake, fraction of vehicle control: polyphenol 10 μM, 300 nM OTA, 5 min
T2 sequence (Q8TCC7 1-542): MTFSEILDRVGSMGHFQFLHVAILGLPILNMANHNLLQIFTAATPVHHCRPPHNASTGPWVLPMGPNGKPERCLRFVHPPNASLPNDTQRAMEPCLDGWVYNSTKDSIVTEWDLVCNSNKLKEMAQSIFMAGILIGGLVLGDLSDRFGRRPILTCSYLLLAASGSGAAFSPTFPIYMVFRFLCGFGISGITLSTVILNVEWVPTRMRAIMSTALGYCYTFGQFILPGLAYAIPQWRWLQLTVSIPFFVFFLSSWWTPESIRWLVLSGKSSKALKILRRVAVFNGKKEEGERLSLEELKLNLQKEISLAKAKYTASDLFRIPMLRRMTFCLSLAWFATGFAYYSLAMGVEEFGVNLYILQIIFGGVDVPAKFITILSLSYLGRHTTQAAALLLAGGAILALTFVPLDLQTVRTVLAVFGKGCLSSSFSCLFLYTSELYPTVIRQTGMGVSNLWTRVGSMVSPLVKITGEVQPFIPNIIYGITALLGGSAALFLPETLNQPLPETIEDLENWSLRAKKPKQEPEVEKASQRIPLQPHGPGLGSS
Method: as §1, §2

OAT4 = molecular target: T3, OAT4 (Homo sapiens, UniProt Q9NSA0); test: Polyphenol inhibition of OAT4-mediated OTA uptake in HEK293 cells; design: host or cells: HEK293, stably transfected; conditions: polyphenol 10 μM, 300 nM OTA, 5 min
T3 sequence (Q9NSA0 1-550): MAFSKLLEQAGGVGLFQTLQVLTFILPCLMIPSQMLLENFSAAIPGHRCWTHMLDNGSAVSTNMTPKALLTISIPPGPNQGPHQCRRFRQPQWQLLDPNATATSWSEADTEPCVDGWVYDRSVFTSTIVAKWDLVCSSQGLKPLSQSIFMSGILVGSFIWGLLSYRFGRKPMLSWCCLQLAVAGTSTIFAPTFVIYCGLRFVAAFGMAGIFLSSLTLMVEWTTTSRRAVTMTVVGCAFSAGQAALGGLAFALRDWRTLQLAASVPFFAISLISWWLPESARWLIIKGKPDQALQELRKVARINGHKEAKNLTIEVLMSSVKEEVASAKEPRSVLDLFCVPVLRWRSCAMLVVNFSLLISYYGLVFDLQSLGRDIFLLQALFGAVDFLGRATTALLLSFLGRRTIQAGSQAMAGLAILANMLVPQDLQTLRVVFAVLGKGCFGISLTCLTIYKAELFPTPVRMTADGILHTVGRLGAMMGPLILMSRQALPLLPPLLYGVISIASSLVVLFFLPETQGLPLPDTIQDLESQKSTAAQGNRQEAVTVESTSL
Method: as §1, §2

human BCRP = molecular target: T4, human BCRP (Homo sapiens, UniProt Q9UNQ0); test: Polyphenol modulation of BCRP-mediated OTA efflux in MDCK-II cells; design: host or cells: MDCK-II, transient plasmid transfection
T4 sequence (Q9UNQ0 1-655): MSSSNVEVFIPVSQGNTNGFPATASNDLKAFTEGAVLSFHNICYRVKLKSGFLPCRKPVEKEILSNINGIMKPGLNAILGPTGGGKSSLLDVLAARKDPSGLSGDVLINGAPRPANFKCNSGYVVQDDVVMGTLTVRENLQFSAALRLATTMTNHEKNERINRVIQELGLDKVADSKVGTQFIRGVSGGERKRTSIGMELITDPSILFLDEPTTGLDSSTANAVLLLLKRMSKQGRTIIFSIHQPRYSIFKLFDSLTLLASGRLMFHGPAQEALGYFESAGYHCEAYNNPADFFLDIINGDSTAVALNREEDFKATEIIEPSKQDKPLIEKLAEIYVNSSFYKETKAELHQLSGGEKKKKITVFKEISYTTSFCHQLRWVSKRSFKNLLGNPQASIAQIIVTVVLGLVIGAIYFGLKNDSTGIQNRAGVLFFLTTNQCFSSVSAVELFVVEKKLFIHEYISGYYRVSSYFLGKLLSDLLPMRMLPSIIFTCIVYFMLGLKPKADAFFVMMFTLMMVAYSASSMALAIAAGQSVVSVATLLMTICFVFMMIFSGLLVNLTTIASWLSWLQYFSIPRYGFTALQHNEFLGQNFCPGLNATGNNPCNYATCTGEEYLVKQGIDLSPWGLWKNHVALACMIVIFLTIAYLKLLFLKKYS
Method: The concentrations of polyphenols tested were as follows: ECG and miquelianin: 100, 200, 400, 600, 800, 1000 μM; caffeic acid: 50, 100, 500, 1000, 5000, 10,000 μM; luteolin: 0.1, 1, 10, 20, 25, 40, 50, 60, 100, 150 μM; myricetin: 5, 10, 50, 100, 250, 500, 650, 750, 850, 1000 μM. All other assay conditions were as described above. Transport activity was expressed as percent of vehicle control and fitted to a four-parameter logistic model to obtain half-maximal inhibitory concentration (IC50) values (for inhibition) or half-maximal effective concentration (EC50) values (for activation). Three independent experiments, each with technical triplicate, were performed for every compound.
as §2

Molecule | OTA uptake, fraction of vehicle control (human OAT1) | OTA uptake, fraction of vehicle control (OAT3) | OTA uptake, fraction of vehicle control (OAT4) | IC50 (human BCRP; read-out: IC50, inhibition of BCRP-mediated OTA transport, 300 nM OTA, efflux ratio as % of vehicle control) [µM] | effect on BCRP-mediated OTA transport (human BCRP; 300 nM OTA, 100 to 1000 μM) | decrease of OAT1-mediated OTA uptake (human OAT1; 10 µM) [%] | decrease of OAT3-mediated OTA uptake (OAT3; 10 µM) [%] | IC50 (human BCRP) [µM] | EC50 (human BCRP) [µM] | maximal stimulation of BCRP-mediated OTA efflux (human BCRP; 300 nM OTA)
O=C(O[C@@H]1Cc2c(O)cc(O)cc2O[C@@H]1c1ccc(O)c(O)c1)c1cc(O)c(O)c(O)c1 [ECG, (-)-Epicatechin-3-O-gallate] | did not significantly inhibit | did not significantly inhibit | did not significantly inhibit | 495 |  |  |  |  |  | 
quercetin 3-O glucuronide [Miquelianin] | no significant effects | 0.58 fold of vehicle control | no significant effects |  | no appreciable inhibition or activation |  |  |  |  | 
O=c1cc(-c2ccc(O)c(O)c2)oc2cc(O)cc(O)c12 [luteolin] | 0.28 fold of vehicle control | 0.36 fold of vehicle control | 0.7 fold of vehicle control |  |  | 72 | 64 | 22 |  | 
O=C(O)/C=C/c1ccc(O)c(O)c1 [caffeic acid] | did not significantly inhibit | did not significantly inhibit | did not significantly inhibit |  |  |  |  |  | 714 | around 2 fold of control
O=c1c(O)c(-c2cc(O)c(O)c(O)c2)oc2cc(O)cc(O)c12 [myricetin] | 0.73 fold of vehicle control | 0.74 fold of vehicle control | 0.82 fold of vehicle control |  |  |  |  | 425 |  | 
